Data as given in PubChem BioAssay (NCI).
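Values below derive from 48-hour exposures of cells grown in 96-well plates, with endpoints linearly interpolated between the two concentrations bracketing the appropriate inhibition level. The concentration for full growth arrest is given as TGI.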

How the values were obtained:
Test in all cases: NCI tumour cell line growth inhibition, 48 h
PC-3 prostate = system: PC-3 prostate
NCI-H226 lung = system: NCI-H226 lung
HS 578T breast = system: HS 578T breast
OVCAR-5 ovarian = system: OVCAR-5 ovarian
HCT-15 colon = system: HCT-15 colon
OVCAR-4 ovarian = system: OVCAR-4 ovarian
M14 melanoma = system: M14 melanoma
SK-MEL-2 melanoma = system: SK-MEL-2 melanoma
LOX IMVI melanoma = system: LOX IMVI melanoma
SW-620 colon = system: SW-620 colon
OVCAR-8 ovarian = system: OVCAR-8 ovarian
UACC-62 melanoma = system: UACC-62 melanoma
CAKI-1 renal = system: CAKI-1 renal
MDA-MB-435 = system: MDA-MB-435
TK-10 renal = system: TK-10 renal
HCC-2998 colon = system: HCC-2998 colon
RXF 393 renal = system: RXF 393 renal
ACHN renal = system: ACHN renal
SNB-75 CNS = system: SNB-75 CNS
SF-268 CNS = system: SF-268 CNS
EKVX NSCLC = system: EKVX NSCLC
SN12C renal = system: SN12C renal
UO-31 renal = system: UO-31 renal
T-47D breast = system: T-47D breast
SK-MEL-28 melanoma = system: SK-MEL-28 melanoma
BT-549 breast = system: BT-549 breast
NCI/ADR-RES ovarian = system: NCI/ADR-RES ovarian
NCI-H23 lung = system: NCI-H23 lung
U251 CNS = system: U251 CNS
K-562 leukemia = system: K-562 leukemia
SF-295 CNS = system: SF-295 CNS
HOP-62 NSCLC = system: HOP-62 NSCLC
NCI-H522 lung = system: NCI-H522 lung
OVCAR-3 ovarian = system: OVCAR-3 ovarian
KM12 colon = system: KM12 colon
MDA-N = system: MDA-N
MOLT-4 leukemia = system: MOLT-4 leukemia
DU-145 prostate = system: DU-145 prostate
SK-MEL-5 melanoma = system: SK-MEL-5 melanoma
IGROV1 ovarian = system: IGROV1 ovarian
MALME-3M melanoma = system: MALME-3M melanoma
A549 NSCLC = system: A549 NSCLC
A498 renal = system: A498 renal
UACC-257 melanoma = system: UACC-257 melanoma
HCT-116 colon = system: HCT-116 colon
786-0 renal = system: 786-0 renal
HOP-92 NSCLC = system: HOP-92 NSCLC
MDA-MB-231 breast = system: MDA-MB-231 breast
SR leukemia = system: SR leukemia
NCI-H460 lung = system: NCI-H460 lung
SNB-19 CNS = system: SNB-19 CNS
CCRF-CEM leukemia = system: CCRF-CEM leukemia
HT29 colon = system: HT29 colon
COLO 205 colon = system: COLO 205 colon
SF-539 CNS = system: SF-539 CNS
SK-OV-3 ovarian = system: SK-OV-3 ovarian
HL-60(TB) leukemia = system: HL-60(TB) leukemia

Measured: TGI

Cc1ccc(S(=O)(=O)OC2C(C3COC(C)(C)O3)OC3OC(C)(C)OC32)cc1 (configuration not stated)
not listed: COLO 205 colon | SF-539 CNS | SK-OV-3 ovarian | HL-60(TB) leukemia
> 100 µM: all other assays above

CCOC(=O)[C@@]12CCC(C1=O)[C@](C)(O)C[C@@H]2c1ccccc1
38.4 µM: MDA-MB-435
16.8 µM: MDA-N
68.8 µM: 786-0 renal
96.9 µM: SK-OV-3 ovarian
84 µM: OVCAR-3 ovarian
72.3 µM: SN12C renal
61.7 µM: HS 578T breast
52.1 µM: NCI-H522 lung
73.2 µM: HT29 colon
not listed: HCC-2998 colon | A498 renal | SR leukemia
> 100 µM: all other assays above
